“Also recorded” adds a separate entry of the source. Read-outs that look alike come from different tables or passages of the source. One block for each molecule: values may come before it.
What was measured:
menin-MLL interaction [1] = biological target: T1, menin-MLL interaction (Homo sapiens (Human), UniProt O00255); experiment: Fluorescence polarization (FP) competition assay with fluorescein-labeled MLL peptide; type: binding;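 also: Read-out is fluorescence anisotropy of fluorescein-labeled MLL peptide bound to menin, inhibitors displace the peptide and lower anisotropy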
T1 sequence (O00255 whole entry): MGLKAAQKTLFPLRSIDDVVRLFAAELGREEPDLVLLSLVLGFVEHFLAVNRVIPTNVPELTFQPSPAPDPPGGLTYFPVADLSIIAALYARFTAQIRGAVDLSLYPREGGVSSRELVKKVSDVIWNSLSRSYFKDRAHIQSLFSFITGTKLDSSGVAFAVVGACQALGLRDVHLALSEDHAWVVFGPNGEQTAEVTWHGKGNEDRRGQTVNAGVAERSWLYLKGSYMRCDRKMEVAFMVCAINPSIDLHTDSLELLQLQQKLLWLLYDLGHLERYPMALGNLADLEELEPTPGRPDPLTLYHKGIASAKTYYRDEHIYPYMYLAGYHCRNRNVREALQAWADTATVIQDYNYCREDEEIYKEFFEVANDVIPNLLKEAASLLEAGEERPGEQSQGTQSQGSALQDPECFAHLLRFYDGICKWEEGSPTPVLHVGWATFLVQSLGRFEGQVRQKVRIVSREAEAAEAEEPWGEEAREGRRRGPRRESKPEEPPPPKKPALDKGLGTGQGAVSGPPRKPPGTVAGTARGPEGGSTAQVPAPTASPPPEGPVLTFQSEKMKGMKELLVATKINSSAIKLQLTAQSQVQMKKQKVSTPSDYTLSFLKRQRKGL

[2] = test system: non-MLL leukemia cell lines (Kasumi-1, ME-1); experiment: MTT viability assay in non-MLL leukemia cell lines; type: cell-based, human; details: Kasumi-1 (AML1-ETO), ME-1 (CBFβ-SMMHC)
[3] = test system: Hoxa9 and Meis1 expression; experiment: qRT-PCR of MLL downstream targets in THP-1 cells
[4] = test system: human leukemia cell lines with MLL translocations (MV4;11, KOPN-8, THP-1, MonoMac6); experiment: MTT viability assay in MLL leukemia cell lines; type: cell-based; details: in words
[5] = test system: mouse bone marrow transduced with MLL-AF9; experiment: MTT viability assay, transduced mouse bone marrow; type: cell-based
Excerpt: (§1) Effects of thienopyrimidine compounds on mouse bone marrow transduced with MLL-AF9 and MLL-ENL.

[6] = test system: mouse bone marrow transduced with MLL-ENL; experiment: MTT viability assay, transduced mouse bone marrow; type: cell-based
Excerpt: as §1

[7] = test system: mouse bone marrow transduced with E2A-HLF; experiment: MTT viability assay, transduced mouse bone marrow (negative control); type: cell-based
THP-1 leukemia cells = experiment: Differentiation of THP-1 cells, CD11b by flow cytometry; type: cell-based, human
Excerpt: Thienopyrimidine and benzodiazepine compounds induce differentiation of the MLL leukemia cells.

menin-MLL interaction [8] = biological target: T1, menin-MLL interaction; details: 50 μM and 25 μM compound, vs DMSO control
[9] = Solubility (stated in words); type: physicochemical; details: relative to Compound 1, in words
[10] = test system: human leukemia cell lines with MLL translocations (MV4;11, ML-2, KOPN-8, Karpas 45); experiment: ATP-based luminescence cell viability assay in MLL leukemia cell lines; details: range over MLL leukemia cell lines
Hep-G2 (liver) cell line = experiment: MTT viability assay, liver cell line
HK-2 (kidney) cell line = experiment: MTT viability assay, kidney cell line
menin-MLL interaction [11] = biological target: T1, menin-MLL interaction; experiment: HTRF (TR-FRET) assay, His-tagged menin and biotinylated MLL peptide; type: binding; details: Table 3
MV4;11 cells (MLL-AF4) = experiment: Annexin V/PI staining flow cytometry
THP-1 cells (MLL-AF9) = experiment: Annexin V/PI staining flow cytometry
Hoxa9 promoter = experiment: Luciferase reporter assay in HEK293 cells transfected with MLL-AF9
[12] = Table 2, FP assay, read-out: IC50
[13] = Table 3, NA = no activity, read-out: IC50 in FP assay with FLSN-MLL

IC50 (menin-MLL interaction [1]; [12]): 12 µM
Structure (SMILES): CCc1cc2c(N3CCN(C(=O)c4ccco4)CC3)ncnc2s1 [Compound 63]
effect on growth of non-MLL leukemia cell lines [2]: No or very limited effect
expression level of Hoxa9 and Meis1 [3]: Downregulation

Structure (SMILES): CCCc1cc2c(N3CCN(C4=NCC(C)(C)S4)CC3)ncnc2s1 [Compound 70]
growth inhibition of MLL leukemia cells [4]: Very effective growth inhibition
effect on growth of non-MLL leukemia cell lines [2]: no effect on the cell growth
inhibition of cell growth [5]: substantial inhibition of cell growth
inhibition of cell growth [6]: substantial inhibition of cell growth
inhibition of cell growth [7]: no significant inhibition of cell growth
expression of CD11b on the cell surface (THP-1 leukemia cells): increased expression of CD11b
expression level of Hoxa9 and Meis1 [3]: Downregulation
inhibition of the menin-MLL interaction in cells (co-IP) (menin-MLL interaction [8]): effectively inhibit

solubility [9]: improved solubility
GI50 [10]: 7 to 25 µM
Structure (SMILES): CCc1cc2c(N3CCN(c4nnc(CC)s4)CC3)ncnc2s1 [Compound 4]
toxicity in viability assay (Hep-G2 (liver) cell line): no substantial signs of toxicity
toxicity in viability assay (Hep-G2 (liver) cell line; listed as Compounds 4): no signs of substantial toxicity
toxicity in viability assay (HK-2 (kidney) cell line): no substantial signs of toxicity
toxicity in viability assay (HK-2 (kidney) cell line; listed as Compounds 4): no signs of substantial toxicity

IC50 (menin-MLL interaction [1]; FP competition, read-out: IC50 for inhibition of the menin-MLL interaction): 7.4 µM
IC50 (menin-MLL interaction [1]; [13]): 7.4 µM
Structure (SMILES): CC(=O)N1c2ccccc2NC2=C(C(=O)CC(c3ccc(Cl)c(Cl)c3)C2)C1c1cccnc1 (centres unmarked) [Compound 86]
growth inhibition of MLL leukemia cells [4]: strongly inhibited growth
effect on growth of non-MLL leukemia cell lines [2]: no or very limited effect on cell growth
expression level of Hoxa9 and Meis1 [3]: Downregulation of Hoxa9 and Meis1 expression

IC50 (menin-MLL interaction [1]; [13]): 13 µM
IC50 (menin-MLL interaction [1]; re-tested by FP and HTRF, read-out: IC50 for inhibition of the menin-MLL interaction): 13 µM
IC50 (menin-MLL interaction [11]): 7 µM
inhibition of the menin-MLL interaction in cells (co-IP) (menin-MLL interaction [8]): effectively inhibit
Structure (SMILES): CC(=O)N1c2ccccc2NC2=C(C(=O)CC(c3ccc(C(C)(C)C)cc3)C2)C1c1cccnc1 (centres unmarked) [Compound 32]
growth inhibition of MLL leukemia cells [4]: substantial growth inhibition; also recorded: strongly inhibited growth
expression of CD11b on the cell surface (THP-1 leukemia cells): increased expression of CD11b
toxicity in viability assay (Hep-G2 (liver) cell line): no signs of substantial toxicity
apoptotic cells (MV4;11 cells (MLL-AF4); 25 μM): > 20%
dead cells (MV4;11 cells (MLL-AF4); 25 μM): > 20%
induction of apoptosis and cell death (MV4;11 cells (MLL-AF4); 25 μM and 50 μM, in words): substantial apoptosis and cell death
induction of apoptosis and cell death (THP-1 cells (MLL-AF9); 25 μM and 50 μM, in words): substantial apoptosis and cell death
apoptotic cells (THP-1 cells (MLL-AF9); 50 μM): about 20%
dead cells (THP-1 cells (MLL-AF9); 50 μM): > 40%
toxicity in viability assay (HK-2 (kidney) cell line): no signs of substantial toxicity
transactivation of the Hoxa9 promoter (Hoxa9 promoter): effectively inhibit; also recorded: dose dependent inhibition

IC50 (menin-MLL interaction [1]; [13]): 230 µM
Structure (SMILES): O=C1CC(c2ccc3c(c2)OCO3)CC2=C1C(c1ccncc1)Nc1ccccc1N2 (centres unmarked) [Compound 39]
growth inhibition of MLL leukemia cells [4]: no effect; also recorded: no growth inhibition
transactivation of the Hoxa9 promoter (Hoxa9 promoter): No effect

IC50 (menin-MLL interaction [1]; [12]): 0.65 µM
in vitro activity in FP assay relative to parent Compound 1 (menin-MLL interaction [1]; in words): more potent activity
inhibition of the menin-MLL interaction in cells (co-IP) (menin-MLL interaction [8]): effectively inhibit
Structure (SMILES): CC(C)c1cc2c(N3CCN(C4=NCC(C)(C)S4)CC3)ncnc2s1 [Compound 67]
expression of CD11b on the cell surface (THP-1 leukemia cells): increased expression of CD11b
